For assay [1], the system named is Staphylococcus Aureus 9213. Put plainly: MIC by agar dilution (NCCLS), Staphylococcus aureus 9213. The assay is classed as cell-based. How it is done:
(§1) The saturated and unsaturated 3-aryl butyrolactone compounds of the present invention have useful activity against a variety of organisms. The in vitro activity of compounds of the present invention are assessed by standard testing procedures such as the determination of minimum inhibitory concentration (MIC) by agar dilution as described in "Methods for Dilution Antimicrobial Susceptiblity Tests for Bacteria That Grow Aerobically" (MFT) published January 1993 by the National Committee for Clinical Laboratory Standards. (NCCLS), 771 East Lancaster Avenue, Villanova, Pa. 19084 USA. The activity of selected compounds of the present invention against Staphylococcus aureus and Streptococcus pneumoniae are shown in Table 1.

A further assay deals with S. aureus UC9213. Put plainly: Murine Assay, in vivo antimicrobial activity (ED50, survival). More on the design: species or system Staphylococcus aureus (infected female mice). Particulars: Staphylococcus aureus, 144 h, read-out: ED50 (S. aureus UC9213, sq). How it is done:
Antimicrobial activity was tested in vivo using the Murine Assay procedure. Groups of female mice (six mice of 18-20 grams each) are injected intraperitoneally with bacteria which is thawed just prior to use and suspended in brain heart infusion with 4% brewer's yeast (Staphylococcus aureus) or brain heart infusion (Streptococcus species). Antibiotic treatment at six dose levels per drug is administered one hour and five hours after infection by either oral intubation or subcutaneous routes. Survival is observed daily for six days. ED50 values based on mortality ratios are calculated using probit analysis. The subject compounds are compared against well-known antimicrobials as controls.

Assay [2] has as its system Staphylococcus Pneumoniae 9912. The assay is described as follows: MIC by agar dilution (NCCLS), Streptococcus pneumoniae 9912. The assay is classed as cell-based. To be noted: S. pneumoniae 9912. The procedure: as §1
On the technique in general: In agar dilution the substance is mixed into plates at graded concentrations.

Values after ≈ are worked out from the molar mass of the structure shown. Like-named read-outs stand apart in the source and are kept apart here.

Turning to `CN[C@H](CC(C)C)C(=O)N[C@H]1C(=O)N[C@@H](CC(N)=O)C(=O)N[C@H]2C(=O)N[C@H]3C(=O)N[C@H](C(=O)N[C@H](C(=O)O)c4cc(O)cc(O)c4-c4cc3ccc4O)[C@H](O)c3ccc(c(Cl)c3)Oc3cc2cc(c3O[C@@H]2O[C@H](CO)[C@@H](O)[C@H](O)[C@H]2O[C@H]2C[C@](C)(N)[C@H](O)[C@H](C)O2)Oc2ccc(cc2Cl)[C@H]1O` [Vancomycin, reference compound], in assay [1] (AUREUS9213, read-out: Vancomycin MIC), the MIC (in general, the smallest concentration in the dilution series that meets the test's criterion for growth inhibition) stood at 1 µg/mL (≈ 0.69 µM). In the assay with S. aureus UC9213 (UC9213, infected ip), the ED50 (as a rule, the dose at which the effect has come halfway, by size or by number of responders) is 1.9 mg/kg.

For the molecule `COc1ccc(-c2ccc(C3=CC(CNC(C)=O)OC3=O)cc2)ccc1=O` (centres unmarked) [Example 1, Acetamide, N-[[4-[4-[4-(2-methoxy)-5-oxo-1,3,6-cycloheptatrien-1-yl]phenyl]-2,5-dihydro-5-oxo-2-furanyl]methyl]-], the MIC is 2 µg/mL (≈ 5.47 µM) in assay [1] (AUREUS9213, agar dilution, S. aureus 9213, read-out: MIC Staphylococcus Aureus 9213) and under 0.5 µg/mL in assay [2]. Moreover, the ED50 in the assay on S. aureus UC9213 (infected ip, mice infected i.p. with S. aureus UC9213, sq treatment 1 h and 5 h after infection, survival six days, probit analysis) was 9.3 mg/kg.

Values taken from US5708169A, “5-amidomethyl α,β-saturated and -unsaturated 3-aryl butyrolactone antibacterial agents” (Pharmacia & Upjohn Company, priority 1996, dated 1998).
